We go through 18 molecules from patent US20260015358A1, “BICYCLIC DERIVATIVES, COMPOSITIONS AND USES THEREOF” (Danatlas Pharmaceuticals Co., Ltd., priority 2023, published 2026).

pIC50: −log10 of the molar value. A value given as a limit tells only on which side of the number the result lay.

In experiment [1] the target is T1, WRN [UniPro: Q14191 (WRN_HUMAN), N500-C946] (Homo sapiens (Human), UniProt Q14191). As to the kind of experiment: WRN unwinding assay (FORKF DNA, fluorescence). It is filed as biochemical. To be noted: Table 14.
T1 sequence (Q14191 500-946): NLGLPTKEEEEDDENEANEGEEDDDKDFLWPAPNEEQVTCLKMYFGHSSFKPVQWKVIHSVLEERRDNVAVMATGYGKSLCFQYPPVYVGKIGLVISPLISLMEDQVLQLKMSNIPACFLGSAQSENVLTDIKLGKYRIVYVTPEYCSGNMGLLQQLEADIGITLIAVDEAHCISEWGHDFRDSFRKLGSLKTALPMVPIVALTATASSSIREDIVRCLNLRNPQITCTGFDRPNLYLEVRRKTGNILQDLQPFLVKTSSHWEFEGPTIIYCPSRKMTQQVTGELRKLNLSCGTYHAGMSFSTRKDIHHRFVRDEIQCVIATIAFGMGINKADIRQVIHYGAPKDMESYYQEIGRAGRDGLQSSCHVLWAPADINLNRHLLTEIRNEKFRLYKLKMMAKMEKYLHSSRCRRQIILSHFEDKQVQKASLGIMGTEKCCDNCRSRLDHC
Experiment [2] concerns the target T1, WRN [UniPro: Q14191 (WRN_HUMAN), N500-C946]. Briefly: WRN ATPase assay (ADP-Glo). It is filed as biochemical. The conditions noted are these: WRN enzymatic activity assay. For orientation: In ADP-Glo the light output rises with the ADP produced.

Broadly, the pIC50 is the negative decadic logarithm of the IC50, by convention in mol/L. Low readings indicate a high IC50, high ones a low IC50. For `CCc1c(N2CCN(C(=O)c3ccc[nH]c3=O)CC2)c(=O)n2nc(C3=CCOCC3)nc2n1CC(=O)Nc1ccc(C(F)(F)F)cc1Cl` [Example 65, N-(2-Chloro-4-(trifluoromethyl)phenyl)-2-(2-(3,6-dihydro-2H-pyran-4-yl)-5-ethyl-7-oxo-6-(4-(2-oxo-1,2-dihydropyridine-3-carbonyl)piperazin-1-yl)-[1,2,4]triazolo[1,5-a]pyrimidin-4(7H)-yl)acetamide], the pIC50 in experiment [1] and in experiment [2] was 6.00 to 7.00 throughout.
Regarding `CCc1c(N2CCN(C(=O)C3CCC(=O)N3)CC2)c(=O)n2nc(C3=CCOCC3)nc2n1CC(=O)Nc1ccc(C(F)(F)F)cc1Cl` (stereo not drawn) [Example 66, N-(2-Chloro-4-(trifluoromethyl)phenyl)-2-(2-(3,6-dihydro-2H-pyran-4-yl)-5-ethyl-7-oxo-6-(4-(5-oxopyrrolidine-2-carbonyl)piperazin-1-yl)-[1,2,4]triazolo[1,5-a]pyrimidin-4(7H)-yl)acetamide], the negative logarithm of the IC50 (pIC50) in experiment [1] and in experiment [2] was under 6.00 throughout.
Turning to `CCc1c(N2CCN(C(=O)c3nccc4[nH]ccc34)CC2)c(=O)n2nc(C3=CCOCC3)nc2n1CC(=O)Nc1ccc(Cl)cc1C(F)(F)F` [Example 67, 2-(6-(4-(1H-Pyrrolo[3,2-c]pyridine-4-carbonyl)piperazin-1-yl)-2-(3,6-dihydro-2H-pyran-4-yl)-5-ethyl-7-oxo-[1,2,4]triazolo[1,5-a]pyrimidin-4(7H)-yl)-N-(4-chloro-2-(trifluoromethyl)phenyl)acetamide], the pIC50 in experiment [1] and in experiment [2] was over 7.00 throughout.
Turning to `CCc1c(N2CCN(C(=O)c3ccnc4cc[nH]c34)CC2)c(=O)n2nc(C3=CCOCC3)nc2n1CC(=O)Nc1ccc(Cl)cc1C(F)(F)F` [Example 68, 2-(6-(4-(1H-Pyrrolo[3,2-b]pyridine-7-carbonyl)piperazin-1-yl)-2-(3,6-dihydro-2H-pyran-4-yl)-5-ethyl-7-oxo-[1,2,4]triazolo[1,5-a]pyrimidin-4(7H)-yl)-N-(4-chloro-2-(trifluoromethyl)phenyl)acetamide], the pIC50 in experiment [1] and in experiment [2] was 6.00 to 7.00 in each case.
`CCc1c(N2CCN(C(=O)c3ncnc4[nH]ccc34)CC2)c(=O)n2nc(C3=CCOCC3)nc2n1CC(=O)Nc1ccc(Cl)cc1C(F)(F)F` [Example 69, 2-(6-(4-(7H-Pyrrolo[2,3-d]pyrimidine-4-carbonyl)piperazin-1-yl)-2-(3,6-dihydro-2H-pyran-4-yl)-5-ethyl-7-oxo-[1,2,4]triazolo[1,5-a]pyrimidin-4(7H)-yl)-N-(4-chloro-2-(trifluoromethyl)phenyl)acetamide]: the negative logarithm of the IC50 (pIC50) in experiment [1] is over 7.00; in experiment [2] it was 6.00 to 7.00.
On the same counts, the results for `CCc1c(N2CCN(C(=O)c3cnc(C(F)(F)F)[nH]3)CC2)c(=O)n2nc(C3=CCOCC3)nc2n1CC(=O)Nc1ccc(Cl)cc1C(F)(F)F` [Example 70, N-(4-Chloro-2-(trifluoromethyl)phenyl)-2-(2-(3,6-dihydro-2H-pyran-4-yl)-5-ethyl-7-oxo-6-(4-(2-(trifluoromethyl)-1H-imidazole-5-carbonyl)piperazin-1-yl)-[1,2,4]triazolo[1,5-a]pyrimidin-4(7H)-yl)acetamide] are 6.00 to 7.00 and 6.00 to 7.00.
For `CCc1c(N2CCN(C(=O)c3cc4ccsc4[nH]c3=O)CC2)c(=O)n2nc(C3=CCOCC3)nc2n1CC(=O)Nc1ccc(C(F)(F)F)cc1Cl` [Example 71, N-(2-Chloro-4-(trifluoromethyl)phenyl)-2-(2-(3,6-dihydro-2H-pyran-4-yl)-5-ethyl-7-oxo-6-(4-(6-oxo-6,7-dihydrothieno[2,3-b]pyridine-5-carbonyl)piperazin-1-yl)-[1,2,4]triazolo[1,5-a]pyrimidin-4(7H)-yl)acetamide], in that order: over 7.00 and over 7.00.
Regarding `CCc1c(N2CCN(C(=O)c3ccn4nc(C)cc4c3O)CC2)c(=O)n2nc(C3=CCOCC3)nc2n1CC(=O)Nc1ccc(C(F)(F)F)cc1Cl` [Example 72, N-(2-Chloro-4-(trifluoromethyl)phenyl)-2-(2-(3,6-dihydro-2H-pyran-4-yl)-5-ethyl-6-(4-(4-hydroxy-2-methylpyrazolo[1,5-a]pyridine-5-carbonyl)piperazin-1-yl)-7-oxo-[1,2,4]triazolo[1,5-a]pyrimidin-4(7H)-yl)acetamide], the pIC50 in experiment [1] and in experiment [2] was over 7.00 each time.
As for `CCc1c(N2CCN(C(=O)c3n[nH]c(=O)n(C)c3=O)CC2)c(=O)n2nc(C3=CCOCC3)nc2n1CC(=O)Nc1ccc(Cl)cc1C(F)(F)F` [Example 73, N-(4-Chloro-2-(trifluoromethyl)phenyl)-2-(2-(3,6-dihydro-2H-pyran-4-yl)-5-ethyl-6-(4-(4-methyl-3,5-dioxo-2,3,4,5-tetrahydro-1,2,4-triazine-6-carbonyl)piperazin-1-yl)-7-oxo-[1,2,4]triazolo[1,5-a]pyrimidin-4(7H)-yl)acetamide], the pIC50 in experiment [1] and in experiment [2] was over 7.00 throughout.
In the case of `CCc1c(N2CCN(C(=O)c3sc4cnccc4c3O)CC2)c(=O)n2nc(C3=CCOCC3)nc2n1CC(=O)Nc1ccc(C(F)(F)F)cc1Cl` [Example 74, N-(2-Chloro-4-(trifluoromethyl)phenyl)-2-(2-(3,6-dihydro-2H-pyran-4-yl)-5-ethyl-6-(4-(3-hydroxythieno[2,3-c]pyridine-2-carbonyl)piperazin-1-y1)-7-oxo-[1,2,4]triazolo[1,5-a]pyrimidin-4(7H)-yl)acetamide], the pIC50 in experiment [1] and in experiment [2] was over 7.00 each time.
For `CCc1c(N2CCN(C(=O)c3nc4cnccn4c3O)CC2)c(=O)n2nc(C3=CCOCC3)nc2n1CC(=O)Nc1ccc(C(F)(F)F)cc1Cl` [Example 75, N-(2-Chloro-4-(trifluoromethyl)phenyl)-2-(2-(3,6-dihydro-2H-pyran-4-yl)-5-ethyl-6-(4-(3-hydroxyimidazo[1,2-a]pyrazine-2-carbonyl)piperazin-1-yl)-7-oxo-[1,2,4]triazolo[1,5-a]pyrimidin-4(7H)-yl)acetamide], the negative-log IC50 (pIC50) in experiment [1] was over 7.00; in experiment [2] it was 6.00 to 7.00.
In the case of `CCc1c(N2CCN(C(=O)c3n[nH]cc(C)c3=O)CC2)c(=O)n2nc(C3=CCOCC3)nc2n1CC(=O)Nc1ccc(C(F)(F)F)cc1Cl` [Example 76, N-(2-Chloro-4-(trifluoromethyl)phenyl)-2-(2-(3,6-dihydro-2H-pyran-4-yl)-5-ethyl-6-(4-(5-methyl-4-oxo-1,4-dihydropyridazine-3-carbonyl)piperazin-1-yl)-7-oxo-[1,2,4]triazolo[1,5-a]pyrimidin-4(7H)-yl)acetamide], the figures for the pIC50 in experiment [1] and in experiment [2] were over 7.00 and 6.00 to 7.00, respectively.
On the same counts, the results for `CCc1c(N2CCN(C(=O)c3cnc4c(ccn4C)c3O)CC2)c(=O)n2nc(C3=CCOCC3)nc2n1CC(=O)Nc1ccc(C(F)(F)F)cc1Cl` [Example 77, N-(2-Chloro-4-(trifluoromethyl)phenyl)-2-(2-(3,6-dihydro-2H-pyran-4-yl)-5-ethyl-6-(4-(4-hydroxy-1-methyl-1H-pyrrolo[2,3-b]pyridine-5-carbonyl)piperazin-1-yl)-7-oxo-[1,2,4]triazolo[1,5-a]pyrimidin-4(7H)-yl)acetamide] are over 7.00 and over 7.00.
`CCc1c(N2CCN(C(=O)c3cccc(=O)[nH]3)CC2)c(=O)n2nc(C3=CCOCC3)nc2n1CC(=O)Nc1ccc(C(F)(F)F)cc1Cl` [Example 78, N-(2-Chloro-4-(trifluoromethyl)phenyl)-2-(2-(3,6-dihydro-2H-pyran-4-yl)-5-ethyl-7-oxo-6-(4-(6-oxo-1,6-dihydropyridine-2-carbonyl)piperazin-1-yl)-[1,2,4]triazolo[1,5-a]pyrimidin-4(7H)-yl)acetamide]: the negative logarithm of the IC50 (pIC50) in experiment [1] and in experiment [2] was over 7.00 throughout.
For `CCc1c(N2CCN(C(=O)c3ccnc(=O)[nH]3)CC2)c(=O)n2nc(C3=CCOCC3)nc2n1CC(=O)Nc1ccc(C(F)(F)F)cc1Cl` [Example 79, N-(2-Chloro-4-(trifluoromethyl)phenyl)-2-(2-(3,6-dihydro-2H-pyran-4-yl)-5-ethyl-7-oxo-6-(4-(2-oxo-2,3-dihydropyrimidine-4-carbonyl)piperazin-1-yl)-[1,2,4]triazolo[1,5-a]pyrimidin-4(7H)-yl)acetamide], the values for the pIC50 in experiment [1] and in experiment [2] were over 7.00 and 6.00 to 7.00, respectively.
For `CCc1c(N2CCN(C(=O)c3cc4ccn(C)c4cc3O)CC2)c(=O)n2nc(C3=CCOCC3)nc2n1CC(=O)Nc1ccc(C(F)(F)F)cc1Cl` [Example 80, N-(2-Chloro-4-(trifluoromethyl)phenyl)-2-(2-(3,6-dihydro-2H-pyran-4-yl)-5-ethyl-6-(4-(6-hydroxy-1-methyl-1H-indole-5-carbonyl)piperazin-1-yl)-7-oxo-[1,2,4]triazolo[1,5-a]pyrimidin-4(7H)-yl)acetamide], in that order: over 7.00 and 6.00 to 7.00.
For `CCc1c(N2CCN(C(=O)c3cnc4ncsc4c3O)CC2)c(=O)n2nc(C3=CCOCC3)nc2n1CC(=O)Nc1ccc(C(F)(F)F)cc1Cl` [Example 81, N-(2-Chloro-4-(trifluoromethyl)phenyl)-2-(2-(3,6-dihydro-2H-pyran-4-yl)-5-ethyl-6-(4-(7-hydroxythiazolo[4,5-b]pyridine-6-carbonyl)piperazin-1-yl)-7-oxo-[1,2,4]triazolo[1,5-a]pyrimidin-4(7H)-yl)acetamide], in that order: over 7.00 and over 7.00.
For `CCc1c(N2CCN(C(=O)c3nnccc3O)CC2)c(=O)n2nc(C3=CCOCC3)nc2n1CC(=O)Nc1ccc(C(F)(F)F)cc1Cl` [Example 82, N-(2-Chloro-4-(trifluoromethyl)phenyl)-2-(2-(3,6-dihydro-2H-pyran-4-yl)-5-ethyl-6-(4-(4-hydroxypyridazine-3-carbonyl)piperazin-1-yl)-7-oxo-[1,2,4]triazolo[1,5-a]pyrimidin-4(7H)-yl)acetamide], in that order: over 7.00 and over 7.00.
